The supplement of paper PMC10307832

Experiments:
Assay in all cases: relative viability (nuclei count vs DMSO), 5 days (fraction); higher = more cells survive
[1] = test system: NCI-H1944
How it was run: (§1)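 Lung cancer cell lines in 1536-well plates were dosed by pin tool the day after seeding, either with one drug alone or with a fixed anchor-drug dose plus five library-drug doses (not always all listed) in √10 steps. After 5 days, cells were fixed and their nuclei stained in one step (final 0.05% Triton X-100, 1% formaldehyde, 1 ug/ml Hoechst), then counted on 4× images. Relative viability is the nuclei count in treated wells divided by that in vehicle wells. Values are medians of duplicate plates.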

[2] = test system: NCI-H838
How it was run: as §1

[3] = test system: HCC-78
How it was run: as §1

[4] = test system: SK-LU-1
How it was run: as §1

[5] = test system: NCI-H1734
How it was run: as §1

[6] = test system: EMC-BAC-2
How it was run: as §1

[7] = test system: UMC-11
How it was run: as §1

[8] = test system: SW 1573
How it was run: as §1

[9] = test system: NCI-H441
How it was run: as §1

[10] = test system: NCI-H522
How it was run: as §1

[11] = test system: LC-2-ad
How it was run: as §1

[12] = test system: HOP-62
How it was run: as §1

[13] = test system: NCI-H2087
How it was run: as §1

[14] = test system: NCI-H1975
How it was run: as §1

[15] = test system: NCI-H2347
How it was run: as §1

[16] = test system: NCI-H2126
How it was run: as §1

[17] = test system: NCI-H727
How it was run: as §1

[18] = test system: HCC-366
How it was run: as §1

[19] = test system: NCI-H2009
How it was run: as §1

[20] = test system: PC-3 [JPC-3]
How it was run: as §1

[21] = test system: ChaGo-K-1
How it was run: as §1

[22] = test system: HCC-44
How it was run: as §1

[23] = test system: NCI-H1355
How it was run: as §1

Oc1nc(-c2ccc(C(F)(F)F)cc2)nc2c1CSCC2 [XAV939] + O=C(c1cc(Cc2n[nH]c(=O)c3ccccc23)ccc1F)N1CCN(C(=O)C2CC2)CC1 [Olaparib] (partner 8 µM)
relative viability ([1]; first compound 0.08 µM): 0.421 | relative viability ([1]; first compound 0.253 µM): 0.279 | relative viability ([1]; first compound 0.8 µM): 0.365 | relative viability ([1]; first compound 2.53 µM): 0.342 | relative viability ([2]; first compound 0.08 µM): 0.755 | relative viability ([2]; first compound 0.253 µM): 0.662 | relative viability ([2]; first compound 0.8 µM): 0.597 | relative viability ([2]; first compound 2.53 µM): 0.398 | relative viability ([3]; first compound 0.08 µM): 0.843 | relative viability ([3]; first compound 0.253 µM): 0.821 | relative viability ([3]; first compound 0.8 µM): 0.713 | relative viability ([3]; first compound 2.53 µM): 0.592 | relative viability ([4]; first compound 0.08 µM): 0.5 | relative viability ([4]; first compound 0.253 µM): 0.481 | relative viability ([4]; first compound 0.8 µM): 0.437 | relative viability ([4]; first compound 2.53 µM): 0.596 | relative viability ([5]; first compound 0.08 µM): 0.655 | relative viability ([5]; first compound 0.253 µM): 0.538 | relative viability ([5]; first compound 0.8 µM): 0.673 | relative viability ([5]; first compound 2.53 µM): 0.602 | relative viability ([6]; first compound 0.08 µM): 0.533 | relative viability ([6]; first compound 0.253 µM): 0.477 | relative viability ([6]; first compound 0.8 µM): 0.478 | relative viability ([6]; first compound 2.53 µM): 0.301 | relative viability ([7]; first compound 0.08 µM): 0.488 | relative viability ([7]; first compound 0.253 µM): 0.327 | relative viability ([7]; first compound 0.8 µM): 0.327 | relative viability ([7]; first compound 2.53 µM): 0.274 | relative viability ([8]; first compound 0.08 µM): 0.437 | relative viability ([8]; first compound 0.253 µM): 0.499 | relative viability ([8]; first compound 0.8 µM): 0.485 | relative viability ([8]; first compound 2.53 µM): 0.379 | relative viability ([9]; first compound 0.08 µM): 0.68 | relative viability ([9]; first compound 0.253 µM): 0.448 | relative viability ([9]; first compound 0.8 µM): 0.613 | relative viability ([9]; first compound 2.53 µM): 0.521 | relative viability ([10]; first compound 0.08 µM): 0.887 | relative viability ([10]; first compound 0.253 µM): 0.649 | relative viability ([10]; first compound 0.8 µM): 0.63 | relative viability ([10]; first compound 2.53 µM): 0.689 | relative viability ([11]; first compound 0.08 µM): 0.659 | relative viability ([11]; first compound 0.253 µM): 0.652 | relative viability ([11]; first compound 0.8 µM): 0.685 | relative viability ([11]; first compound 2.53 µM): 0.553 | relative viability ([12]; first compound 0.08 µM): 0.369 | relative viability ([12]; first compound 0.253 µM): 0.351 | relative viability ([12]; first compound 0.8 µM): 0.502 | relative viability ([12]; first compound 2.53 µM): 0.371 | relative viability ([13]; first compound 0.08 µM): 0.625 | relative viability ([13]; first compound 0.253 µM): 0.533 | relative viability ([13]; first compound 0.8 µM): 0.665 | relative viability ([13]; first compound 2.53 µM): 0.464 | relative viability ([14]; first compound 0.08 µM): 0.712 | relative viability ([14]; first compound 0.253 µM): 0.601 | relative viability ([14]; first compound 0.8 µM): 0.622 | relative viability ([14]; first compound 2.53 µM): 0.505 | relative viability ([15]; first compound 0.08 µM): 0.667 | relative viability ([15]; first compound 0.253 µM): 0.543 | relative viability ([15]; first compound 0.8 µM): 0.569 | relative viability ([15]; first compound 2.53 µM): 0.517 | relative viability ([16]; first compound 0.08 µM): 0.962 | relative viability ([16]; first compound 0.253 µM): 0.839 | relative viability ([16]; first compound 0.8 µM): 0.865 | relative viability ([16]; first compound 2.53 µM): 0.855 | relative viability ([17]; first compound 0.08 µM): 0.706 | relative viability ([17]; first compound 0.8 µM): 0.696 | relative viability ([17]; first compound 2.53 µM): 0.678 | relative viability ([18]; first compound 0.08 µM): 0.414 | relative viability ([18]; first compound 0.253 µM): 0.326 | relative viability ([18]; first compound 0.8 µM): 0.283 | relative viability ([18]; first compound 2.53 µM): 0.175 | relative viability ([19]; first compound 0.08 µM): 0.918 | relative viability ([19]; first compound 0.253 µM): 0.728 | relative viability ([19]; first compound 0.8 µM): 0.641 | relative viability ([19]; first compound 2.53 µM): 0.754 | relative viability ([20]; first compound 0.253 µM): 0.997 | relative viability ([20]; first compound 0.8 µM): 1.17 | relative viability ([20]; first compound 2.53 µM): 1.06 | relative viability ([21]; first compound 0.08 µM): 0.409 | relative viability ([21]; first compound 0.253 µM): 0.392 | relative viability ([21]; first compound 0.8 µM): 0.384 | relative viability ([21]; first compound 2.53 µM): 0.376 | relative viability ([22]; first compound 0.08 µM): 0.935 | relative viability ([22]; first compound 0.253 µM): 0.904 | relative viability ([22]; first compound 0.8 µM): 0.958 | relative viability ([22]; first compound 2.53 µM): 0.866 | relative viability ([23]; first compound 0.08 µM): 0.729 | relative viability ([23]; first compound 0.253 µM): 0.617 | relative viability ([23]; first compound 0.8 µM): 0.692 | relative viability ([23]; first compound 2.53 µM): 0.487
